The NIST ThermoML archive (doi:10.1021/je100715x)
Numbers after ± are expanded uncertainties.

Columns and labels:
[1] = refractive index (Na D-line) (dimensionless); details: 101.33 kPa, Liquid, Standard Abbe refractometry
[2] = 101.33 kPa, Liquid; for viscosity: Capillary tube (Ostwald / Ubbelohde) method; for mass density: Vibrating tube method

SMILES	refractive index ([1]; 303.15 K)	refractive index ([1]; 308.15 K)	refractive index ([1]; 313.15 K)	viscosity ([2]; 303.15 K)	mass density ([2]; 303.15 K)	viscosity ([2]; 308.15 K)	mass density ([2]; 308.15 K)	viscosity ([2]; 313.15 K)	mass density ([2]; 313.15 K)	refractive index ([1]; 298.15 K)
CC(=O)c1ccccc1 [acetophenone]	1.5294 ± 0.0004	1.527 ± 0.0004	1.525 ± 0.0004	1.518 ± 0.02 mPa·s	1019.9 ± 0.3 kg/m3	1.378 ± 0.018 mPa·s	1016.9 ± 0.3 kg/m3	1.291 ± 0.016 mPa·s	1013.5 ± 0.3 kg/m3	
O=C1CCCCC1 [cyclohexanone]	1.4465 ± 0.0004	1.444 ± 0.0004	1.442 ± 0.0004	1.816 ± 0.023 mPa·s	937.7 ± 0.4 kg/m3	1.657 ± 0.021 mPa·s	932.8 ± 0.4 kg/m3	1.542 ± 0.02 mPa·s	928.2 ± 0.4 kg/m3	
O=C1CCCC1 [cyclopentanone]	1.4335 ± 0.0004	1.431 ± 0.0004	1.429 ± 0.0004	0.999 ± 0.013 mPa·s	938.5 ± 0.4 kg/m3	0.927 ± 0.012 mPa·s	933.9 ± 0.4 kg/m3	0.865 ± 0.011 mPa·s	929 ± 0.4 kg/m3	1.4352 ± 0.0004
CCOC(=O)C(=O)OCC [diethyl ethanedioate]	1.4063 ± 0.0004	1.404 ± 0.0004	1.402 ± 0.0004	1.623 ± 0.021 mPa·s	1066.1 ± 0.4 kg/m3	1.48 ± 0.019 mPa·s	1060.5 ± 0.4 kg/m3	1.367 ± 0.018 mPa·s	1054.5 ± 0.4 kg/m3	
CCC(=O)CC [pentan-3-one]	1.3879 ± 0.0004	1.3857 ± 0.0004	1.3835 ± 0.0004	0.429 ± 0.006 mPa·s	805.7 ± 0.3 kg/m3	0.397 ± 0.005 mPa·s	801.7 ± 0.3 kg/m3	0.388 ± 0.005 mPa·s	797.7 ± 0.4 kg/m3	
